Experimental findings from US20250361268A1, “NOVEL ANTI-INFLAMMATORY PEPTIDE AND USE THEREOF” (NOVACELL TECHNOLOGY INC., priority 2022, published 2025) are described below.

The term EC50 denotes the concentration at which the effect is half-maximal.

One experiment has as its target T1, FPR2 (Homo sapiens, UniProt P25090).
T1 construct: expressed in transfected cells; host or cells: RBL cells (RBL-FPR2)
T1 sequence (P25090 1-351): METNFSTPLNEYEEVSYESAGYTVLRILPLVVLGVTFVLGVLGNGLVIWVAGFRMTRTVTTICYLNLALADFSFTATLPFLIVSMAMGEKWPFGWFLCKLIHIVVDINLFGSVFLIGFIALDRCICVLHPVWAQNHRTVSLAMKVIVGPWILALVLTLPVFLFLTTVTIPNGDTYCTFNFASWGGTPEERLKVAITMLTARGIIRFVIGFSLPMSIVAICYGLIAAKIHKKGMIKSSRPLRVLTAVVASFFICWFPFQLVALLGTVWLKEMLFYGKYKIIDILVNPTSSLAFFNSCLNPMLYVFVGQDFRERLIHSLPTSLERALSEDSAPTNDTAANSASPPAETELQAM
Briefly: Change in calcium activity by peptide (Fura-2) in RBL cells overexpressing FPR2. The format is cell-based. The note with it: calcium activity (Fura-2), graded per Table 3, read-out: EC50 for [Ca^2+] FPR2. The method in brief:
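Rat basophilic leukemia cells overexpressing FPR2 loaded with Fura-2 (37 °C 1 h, then RT 30 min dark); peptides (0.5 mM stocks in water or 50% DMSO) diluted in HBSS + 20 mM HEPES and added on a plate reader, intracellular Ca2+ change recorded.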

In a further experiment the target is T2, FPR1 (Homo sapiens, UniProt P21462).
T2 sequence (P21462 1-350): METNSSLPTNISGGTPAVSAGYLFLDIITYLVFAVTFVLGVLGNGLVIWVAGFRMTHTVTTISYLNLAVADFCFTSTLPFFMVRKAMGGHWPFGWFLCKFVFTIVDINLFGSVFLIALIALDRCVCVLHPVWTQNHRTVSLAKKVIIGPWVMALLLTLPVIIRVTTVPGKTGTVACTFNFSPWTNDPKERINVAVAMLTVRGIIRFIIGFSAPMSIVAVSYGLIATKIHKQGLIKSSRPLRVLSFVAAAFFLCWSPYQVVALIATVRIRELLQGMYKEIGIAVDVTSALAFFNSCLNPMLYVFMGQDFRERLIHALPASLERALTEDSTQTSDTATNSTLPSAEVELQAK
Briefly: Change in calcium activity by peptide, FPR1 activation effect. It counts as cell-based. The note with it: calcium activity (Fura-2), graded per Table 3, read-out: EC50 for [Ca^2+] FPR1. The procedure, abridged:
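Cells plated at 3×10^5 per well the day before were loaded with Fura-2 for 1 h at 37 °C, then kept 30 min in the dark at room temperature. Peptide-evoked calcium changes were recorded on a FlexStation 3.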

Peptide text beside a SMILES is read from it. A value given as a limit tells only on which side of the number the result lay.

`CSCC[C@H](NC(=O)[C@@H](N)CCCNC(=N)N)C(=O)N[C@@H](CCCNC(=N)N)C(=O)N[C@@H](Cc1ccc(O)cc1)C(=O)N[C@@H](CCCNC(=N)N)C(=O)N[C@H](C(=O)N[C@H](CCSC)C(N)=O)C(C)C` [Peptide 30] (HELM PEPTIDE1{R.M.R.Y.R.V.[dM].[am]}$$$$V2.0): the EC50 at FPR2 is less than 10 nM; at FPR1, greater than 10000 nM.

In the case of `CSCC[C@H](N)C(=O)N[C@@H](CCCCN)C(=O)N[C@@H](Cc1ccc(O)cc1)C(=O)N[C@@H](Cc1c[nH]c2ccccc12)C(=O)N[C@@H](Cc1ccc(O)cc1)C(=O)N[C@H](CCSC)C(N)=O` [Peptide 89] (HELM PEPTIDE1{M.K.Y.W.Y.[dM].[am]}$$$$V2.0), the EC50 on FPR2 is less than 10 nM; on FPR1 it was greater than 10000 nM.

On to `CSCC[C@@H](NC(=O)[C@@H](NC(=O)[C@H](Cc1ccccc1)NC(=O)[C@H](Cc1ccc(O)cc1)NC(=O)[C@H](CCCNC(=N)N)NC(=O)[C@H](Cc1c[nH]c2ccccc12)NC(=O)[C@@H](N)CCCNC(=N)N)C(C)C)C(N)=O` [Peptide 160] (HELM PEPTIDE1{R.W.R.Y.F.V.[dM].[am]}$$$$V2.0), for which the EC50 was in the range of 11 to 100 nM on FPR2 and 1000 to 10000 nM on FPR1.

As for `CCCC(=O)N[C@@H](CCCCN)C(=O)N[C@@H](CCSC)C(=O)N[C@@H](CCCCN)C(=O)N[C@@H](Cc1ccc(O)cc1)C(=O)N[C@@H](CCCCN)C(=O)N1CCC[C@H]1C(=O)N[C@H](CCSC)C(N)=O` [Peptide 68] (HELM PEPTIDE1{[CCCC(=O)[*:2]].K.M.K.Y.K.P.[dM].[am]}$$$$V2.0), the results for the EC50 at FPR2 and on FPR1 were less than 10 nM and greater than 10000 nM, respectively.

Take `CCCC(=O)N[C@@H](Cc1c[nH]cn1)C(=O)N[C@@H](CCSC)C(=O)N[C@@H](CCCNC(=N)N)C(=O)N[C@@H](Cc1ccc(O)cc1)C(=O)N[C@@H](Cc1c[nH]c2ccccc12)C(=O)N[C@@H](Cc1ccc(O)cc1)C(=O)N[C@H](CCSC)C(N)=O` [Peptide 93] (HELM PEPTIDE1{[CCCC(=O)[*:2]].H.M.R.Y.W.Y.[dM].[am]}$$$$V2.0): the results for the EC50 on FPR2 and at FPR1 were less than 10 nM and 1000 to 10000 nM, respectively.

For `CSCC[C@H](NC(C)=O)C(=O)N[C@@H](CCCNC(=N)N)C(=O)N[C@@H](Cc1ccc(O)cc1)C(=O)N[C@@H](Cc1c[nH]c2ccccc12)C(=O)N[C@@H](Cc1ccc(O)cc1)C(=O)N[C@H](CCSC)C(N)=O` [Peptide 86] (HELM PEPTIDE1{[ac].M.R.Y.W.Y.[dM].[am]}$$$$V2.0), the EC50 at FPR2 is less than 10 nM; at FPR1 it was greater than 10000 nM.

As for `CCCC(=O)N[C@@H](Cc1c[nH]cn1)C(=O)N[C@@H](CCCCN)C(=O)N[C@@H](Cc1ccc(O)cc1)C(=O)N[C@@H](Cc1c[nH]c2ccccc12)C(=O)N1CCC[C@H]1C(=O)N[C@H](CCSC)C(N)=O` [Peptide 151] (HELM PEPTIDE1{[CCCC(=O)[*:2]].H.K.Y.W.P.[dM].[am]}$$$$V2.0), the EC50 on FPR2 is less than 10 nM; at FPR1, 1000 to 10000 nM.

`CSCC[C@H](NC(=O)[C@H](CCCNC(=N)N)NC(C)=O)C(=O)N[C@@H](CCCNC(=N)N)C(=O)N[C@@H](Cc1ccc(O)cc1)C(=O)N[C@@H](Cc1ccc(O)cc1)C(=O)N1CCC[C@H]1C(=O)N[C@H](CCSC)C(N)=O` [Peptide 119] (HELM PEPTIDE1{[ac].R.M.R.Y.Y.P.[dM].[am]}$$$$V2.0): the values for the EC50 at FPR2 and on FPR1 were less than 10 nM and 101 to 1000 nM, respectively.

Turning to `CSCC[C@@H](NC(=O)[C@@H](NC(=O)[C@H](CC(N)=O)NC(=O)[C@H](Cc1ccc(O)cc1)NC(=O)[C@H](CCCNC(=N)N)NC(=O)[C@H](Cc1c[nH]c2ccccc12)NC(=O)[C@@H](N)CCCNC(=N)N)C(C)C)C(N)=O` [Peptide 159] (HELM PEPTIDE1{R.W.R.Y.N.V.[dM].[am]}$$$$V2.0), the EC50 on FPR2 fell in the range of 11 to 100 nM; at FPR1, 1000 to 10000 nM.

Regarding `CCCC(=O)N[C@@H](CCSC)C(=O)N[C@@H](CCCNC(=N)N)C(=O)N[C@@H](Cc1ccc(O)cc1)C(=O)N[C@@H](CCCCN)C(=O)N[C@H](C(=O)N[C@H](CCSC)C(N)=O)C(C)C` [Peptide 15] (HELM PEPTIDE1{[CCCC(=O)[*:2]].M.R.Y.K.V.[dM].[am]}$$$$V2.0), the EC50 on FPR2 was less than 10 nM; on FPR1, greater than 10000 nM.
